Here are results for one molecule from BindingDB's records for doi:10.1021/jm0301787 (Roche Palo Alto, 2003).

In the test the target is Mitogen-activated protein kinase 14 (Homo sapiens, UniProt Q16539). Briefly: In Vitro Kinase Assay. The following applies: pH 7.4; 30 °C. On the procedure: Inhibition of human recombinant active p38alpha MAP kinase was tested by measuring the incorporation of 33P from gamma-[33P] ATP into myelin basic protein (MBP). The assay was performed in a 96-well microtiter plate. The incorporated radioactivity was measured in a Packard Topcount microplate scintillation counter. The 50% inhibitory value was calculated by fitting the data to the equation: fractional activity = 1/[I]/IC50 + 1.
Sequence of Mitogen-activated protein kinase 14 (Q16539 whole entry): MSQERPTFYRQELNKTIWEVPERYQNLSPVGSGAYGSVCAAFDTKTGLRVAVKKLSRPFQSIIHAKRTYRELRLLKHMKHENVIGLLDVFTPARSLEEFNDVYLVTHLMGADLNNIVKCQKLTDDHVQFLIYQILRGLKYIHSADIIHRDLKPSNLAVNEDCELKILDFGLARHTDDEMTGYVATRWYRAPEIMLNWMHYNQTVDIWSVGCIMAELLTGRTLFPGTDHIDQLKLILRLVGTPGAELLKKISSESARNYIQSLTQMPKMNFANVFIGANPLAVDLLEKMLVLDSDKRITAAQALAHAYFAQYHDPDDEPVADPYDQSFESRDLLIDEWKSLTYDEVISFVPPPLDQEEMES

For orientation: IC50 means the concentration needed to halve the response being measured. The low end stands for greater potency in that assay, the high end for weaker potency in that assay. The molecule `CC(CO)Nc1cc(-c2[nH]c3cccnc3c2-c2ccc(F)cc2)ccn1` (stereo unspecified) [2-({4-[3-(4-fluorophenyl)-1H-pyrrolo[3,2-b]pyridin-2-yl]pyridin-2-yl}amino)propan-1-ol] gave an IC50 of 3 nM.
